Laboratory results taken from US10934310B2, “Inhibitors of Bruton's tyrosine kinase and method of their use” (JANSSEN PHARMACEUTICA NV, priority 2015, dated 2021).

biological target: unphosphorylated-BTK kinase domain (UP-BTK), GST-tagged human BTK (389-659aa) (Homo sapiens (Human), UniProt Q06187); assay: BTK Kinase Lanthascreen Binding Assay; details: Lanthascreen binding, 60 minutes incubation; pIC50 = negative log of the IC50 in molar
Protocol: BTK Kinase Lanthascreen Binding Assay:
A BTK kinase lanthascreen binding assay monitors compound binding to unphosphorylated-BTK kinase domain (UP-BTK), by competing with a fluorescent labeled tracer. […] Data were analyzed using Xlfit™ version 5.3 from ID Business Solutions (Guildford), Microsoft Excel add-in. pIC50 refers to the negative log of the IC50 in molar.

Chain of unphosphorylated-BTK kinase domain (UP-BTK), GST-tagged human BTK (389-659aa) (Q06187 389-659): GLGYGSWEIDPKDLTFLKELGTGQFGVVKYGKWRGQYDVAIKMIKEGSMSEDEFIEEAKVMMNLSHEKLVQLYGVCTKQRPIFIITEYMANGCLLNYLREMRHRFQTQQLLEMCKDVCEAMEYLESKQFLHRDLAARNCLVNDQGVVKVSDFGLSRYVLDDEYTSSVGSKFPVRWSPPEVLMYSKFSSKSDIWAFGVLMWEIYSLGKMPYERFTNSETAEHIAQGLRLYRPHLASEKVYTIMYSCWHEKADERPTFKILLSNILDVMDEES

`CC(=O)NC1CCC[C@@H](NC(=O)c2sc3nccc4c3c2NC(=O)N4c2cnc(Oc3ccccc3)cc2C)C1` (single isomer, unassigned) [Example 422, N-((1R,3R)-3-Acetamidocyclohexyl)-5-(*S)-(4-methyl-6-phenoxypyridin-3-yl)-4-oxo-4,5-dihydro-3H-1-thia-3,5,8-triazaacenaphthylene-2-carboxamide] and `CCC(=O)NC1CCC[C@@H](NC(=O)c2sc3nccc4c3c2NC(=O)N4c2cnc(Oc3ccccc3)cc2C)C1` (single isomer, unassigned) [Example 423, 5-(*S)-(4-Methyl-6-phenoxypyridin-3-yl)-4-oxo-N-((1R,3R)-3-propionamidocyclohexyl)-4,5-dihydro-3H-1-thia-3,5,8-triazaacenaphthylene-2-carboxamide] are within 0.2 log units of each other in “BTK_I_binding pIC50” value: 7.72 for the first, 7.75 for the second.

Going from `C=CC(=O)N[C@H]1CCC[C@H]1NC(=O)c1sc2nccc3c2c1NC(=O)N3c1ccc(Oc2cccnn2)cc1C` (single isomer, unassigned) [Example 424, N-((1R,2S)-2-Acrylamidocyclopentyl)-5-(*S)-(2-methyl-4-(pyridazin-3-yloxy)phenyl)-4-oxo-4,5-dihydro-3H-1-thia-3,5,8-triazaacenaphthylene-2-carboxamide] to `C=CC(=O)N[C@@H]1CCCC[C@H]1NC(=O)c1sc2nccc3c2c1NC(=O)N3c1ccc(Oc2ccccc2)cc1C` (single isomer, unassigned) [Example 439, N-((1R,2R)-2-Acrylamidocyclohexyl)-5-(*S)-(2-methyl-4-phenoxyphenyl)-4-oxo-4,5-dihydro-3H-1-thia-3,5,8-triazaacenaphthylene-2-carboxamide], the “BTK_I_binding pIC50” value falls from 7.76 to 7.53.

Going from `C=CC(=O)N[C@H]1CCC[C@H]1NC(=O)c1sc2nccc3c2c1NC(=O)N3c1ccc(Oc2cccnn2)cc1C` (single isomer, unassigned) [Example 425, N-((1R,2S)-2-Acrylamidocyclopentyl)-5-(*R)-(2-methyl-4-(pyridazin-3-yloxy)phenyl)-4-oxo-4,5-dihydro-3H-1-thia-3,5,8-triazaacenaphthylene-2-carboxamide] to `C=CC(=O)N[C@H]1CCC[C@H]1NC(=O)c1sc2nccc3c2c1NC(=O)N3c1cnc(OC(C)C)cc1C` (single isomer, unassigned) [Example 426, N-((1R,2S)-2-Acrylamidocyclopentyl)-5-(*S)-(6-isopropoxy-4-methylpyridin-3-yl)-4-oxo-4,5-dihydro-3H-1-thia-3,5,8-triazaacenaphthylene-2-carboxamide], the “BTK_I_binding pIC50” value rises from 6.67 to 8.20.

Compared with `C=CC(=O)N[C@H]1CC[C@@H](NC(=O)c2sc3nccc4c3c2NC(=O)N4c2cnc(OC(C)C)cc2C)C1` (single isomer, unassigned) [Example 427, N-((1R,3S)-3-Acrylamidocyclopentyl)-5-(*S)-(6-isopropoxy-4-methylpyridin-3-yl)-4-oxo-4,5-dihydro-3H-1-thia-3,5,8-triazaacenaphthylene-2-carboxamide], `C=CC(=O)N[C@@H]1CC[C@H](NC(=O)c2sc3nccc4c3c2NC(=O)N4c2cnc(Oc3ccccc3)cc2C)C1` (single isomer, unassigned) [Example 430, N-((1S,3R)-3-Acrylamidocyclopentyl)-5-(*S)-(4-methyl-6-phenoxypyridin-3-yl)-4-oxo-4,5-dihydro-3H-1-thia-3,5,8-triazaacenaphthylene-2-carboxamide] is higher in “BTK_I_binding pIC50” value: 7.88 for the first, 8.17 for the second.

`Cc1cc(OC(C)C)ncc1N1C(=O)Nc2c(C(=O)N[C@@H]3CCC[C@@H]3N)sc3nccc1c23` (single isomer, unassigned) [Example 428, N-((1R,2S)-2-Aminocyclopentyl)-5-(*S)-(6-isopropoxy-4-methylpyridin-3-yl)-4-oxo-4,5-dihydro-3H-1-thia-3,5,8-triazaacenaphthylene-2-carboxamide] and `Cc1cc(Oc2ccccc2)ncc1N1C(=O)Nc2c(C(=O)N[C@H]3CC[C@@H](N)C3)sc3nccc1c23` (single isomer, unassigned) [Example 431, N-((1S,3R)-3-Aminocyclopentyl)-5-(*S)-(4-methyl-6-phenoxypyridin-3-yl)-4-oxo-4,5-dihydro-3H-1-thia-3,5,8-triazaacenaphthylene-2-carboxamide] are within 0.2 log units of each other in “BTK_I_binding pIC50” value: 6.67 for the first, 6.68 for the second.

`Cc1cc(Oc2ccccc2)ccc1N1C(=O)Nc2c(C(=O)N[C@@H]3CCCC[C@H]3N)sc3nccc1c23` (single isomer, unassigned) [Example 440, N-((1R,2R)-2-aminocyclohexyl)-5-(*S)-(2-methyl-4-phenoxyphenyl)-4-oxo-4,5-dihydro-3H-1-thia-3,5,8-triazaacenaphthylene-2-carboxamide] and `Cc1cc(Oc2ccccc2)ccc1N1C(=O)Nc2c(C(=O)N[C@@H]3CCCC[C@H]3NC(=O)CN)sc3nccc1c23` (single isomer, unassigned) [Example 441, N-((1R,2R)-2-(2-Aminoacetamido)cyclohexyl)-5-(*S)-(2-methyl-4-phenoxyphenyl)-4-oxo-4,5-dihydro-3H-1-thia-3,5,8-triazaacenaphthylene-2-carboxamide] are within 0.2 log units of each other in “BTK_I_binding pIC50” value: 7.07 for the first, 7.01 for the second.

For `CNCC(=O)N[C@@H]1CCCC[C@@H]1NC(=O)c1sc2nccc3c2c1NC(=O)N3c1ccc(Oc2ccccc2)cc1C` (single isomer, unassigned) [Example 443, 5-(*S)-(2-Methyl-4-phenoxyphenyl)-N-((1S,2R)-2-(2-(methylamino)acetamido)cyclohexyl)-4-oxo-4,5-dihydro-3H-1-thia-3,5,8-triazaacenaphthylene-2-carboxamide], the “BTK_I_binding pIC50” value was 6.74.

same assay, conditions: read-out: BTK_I_binding pIC50 (converted)

`Cc1nc(Oc2ccccc2)ccc1N1C(=O)Nc2c(C(=O)N[C@H]3CCC[C@@H](N)C3)sc3nccc1c23` (single isomer, unassigned) [Example 414, N-((1S,3R)-3-Aminocyclohexyl)-5-(*S)-(2-methyl-6-phenoxypyridin-3-yl)-4-oxo-4,5-dihydro-3H-1-thia-3,5,8-triazaacenaphthylene-2-carboxamide] and `Cc1nc(Oc2ccccc2)ccc1N1C(=O)Nc2c(C(=O)N[C@H]3CC[C@H](N)C3)sc3nccc1c23` (single isomer, unassigned) [Example 415, N-((1S,3S)-3-Aminocyclopentyl)-5-(*S)-(2-methyl-6-phenoxypyridin-3-yl)-4-oxo-4,5-dihydro-3H-1-thia-3,5,8-triazaacenaphthylene-2-carboxamide] cannot be ordered by IC50: greater than 1 µM for the first, greater than 1 µM for the second.

`CCC(=O)N[C@H]1CCC[C@H](NC(=O)c2sc3nccc4c3c2NC(=O)N4c2cnc(Oc3ccccc3)cc2C)C1` (single isomer, unassigned) [Example 416, 5-(*S)-(4-Methyl-6-phenoxypyridin-3-yl)-4-oxo-N-((1S,3R)-3-propionamidocyclohexyl)-4,5-dihydro-3H-1-thia-3,5,8-triazaacenaphthylene-2-carboxamide] and `Cc1cc(OC(C)C)ncc1N1C(=O)Nc2c(C(=O)N[C@@H]3CC[C@H](N)C3)sc3nccc1c23` (single isomer, unassigned) [Example 429, N-((1R,3S)-3-Aminocyclopentyl)-5-(*S)-(6-isopropoxy-4-methylpyridin-3-yl)-4-oxo-4,5-dihydro-3H-1-thia-3,5,8-triazaacenaphthylene-2-carboxamide] cannot be ordered by IC50: greater than 1 µM for the first, greater than 1 µM for the second.
